Measurements: article PMC6225228, “Design, Synthesis and Evaluation of N-pyrazinylbenzamides as Potential Antimycobacterial Agents” (Molecules : A Journal of Synthetic Chemistry and Natural …, 2018)
≈ marks a conversion by molar mass, not a printed value. Like-named read-outs stand apart in the source and are kept apart here.

Legend:
[1] = system: Mycobacterium tuberculosis H37Rv CNCTC My 331/88 (ATCC 27294); experiment: Antimycobacterial microdilution MABA, M. tuberculosis; assay type: cell-based; conditions: Mycobacterium tuberculosis, read-out: Mtb H37Rv ATCC 27294 MIC, Middlebrook 7H9 with OADC growth supplement, pH = 6.6, MABA
[2] = system: M. kansasii CNCTC My 235/80 (ATCC 12478); experiment: Antimycobacterial microdilution MABA, M. kansasii; assay type: cell-based, Mycobacterium kansasii; conditions: for MIC: Mycobacterium kansasii, ATCC12478, pH 6.6, read-out: M. kans. ATCC 12478 MIC, Middlebrook 7H9 with OADC, pH 6.6, MABA
[3] = system: M. avium ssp. avium CNCTC My 80/72 (ATCC 15769); experiment: Antimycobacterial microdilution MABA, M. avium; assay type: cell-based, Mycobacterium avium; conditions: for MIC: Mycobacterium avium, ATCC15769, pH 6.6, read-out: M. avium ATCC 15769 MIC
[4] = system: Mycobacterium smegmatis CCM 4622 (ATCC 607); experiment: Antimycobacterial microdilution, M. smegmatis; assay type: cell-based; conditions: Mycolicibacterium smegmatis, read-out: M. smeg. ATCC 607 MIC
[5] = system: Staphylococcus aureus CCM 4516/08; experiment: Antibacterial microdilution broth, SA; assay type: cell-based; conditions: Staphylococcus aureus
[6] = system: Staphylococcus aureus H 5996/08 methicillin resistant; experiment: microbe, parasite or virus in culture; assay type: cell-based; conditions: Staphylococcus aureus, MRSA, read-out: MIC MRSA
[7] = system: Staphylococcus epidermidis H 6966/08; experiment: Antibacterial microdilution broth, SE; assay type: cell-based; conditions: Staphylococcus epidermidis, read-out: MIC SE
[8] = system: Enterococcus sp. J 14365/08; experiment: Antibacterial microdilution broth, EF; assay type: cell-based; conditions: Enterococcus, read-out: MIC EF
[9] = system: Escherichia coli CCM 4517; experiment: Antibacterial microdilution broth, EC; assay type: cell-based; conditions: Escherichia coli, read-out: MIC EC
[10] = system: Pseudomonas aeruginosa CCM 1961; experiment: Antibacterial microdilution broth, PA; assay type: cell-based; conditions: Pseudomonas aeruginosa, read-out: MIC PA
[11] = system: Candida albicans ATCC 44859; experiment: Antifungal microdilution broth, CA; assay type: cell-based; conditions: Candida albicans, read-out: MIC CA
Candida tropicalis 156 = experiment: Antifungal microdilution broth, CT; assay type: cell-based; conditions: read-out: MIC CT
Candida krusei E28 = experiment: Antifungal microdilution broth, CK; assay type: cell-based; conditions: Pichia kudriavzevii, read-out: MIC CK
Candida glabrata 20/I = experiment: Antifungal microdilution broth, CG; assay type: cell-based; conditions: Nakaseomyces glabratus, 20/I, read-out: MIC CG
Trichosporon asahii 1188 = experiment: Antifungal microdilution broth, TA; assay type: cell-based; conditions: read-out: MIC TA
[12] = system: Aspergillus fumigatus 231; experiment: Antifungal microdilution broth, AF; assay type: cell-based; conditions: read-out: MIC AF
[13] = system: Lichtheimia corymbifera 272; experiment: Antifungal microdilution broth, LC; assay type: cell-based; conditions: read-out: MIC LC
[14] = system: Trichophyton interdigitale 445; experiment: Antifungal microdilution broth, TI; assay type: cell-based; conditions: read-out: MIC TI
[15] = Middlebrook 7H9 with OADC, pH 6.6, MABA
[16] = CCM4516, 24 h, read-out: MIC SA, 24 h
[17] = CCM4516, 48 h, read-out: MIC SA, 48 h
[18] = Trichosporon asahii, 1188, 24 h
[19] = Trichosporon asahii, 1188, 48 h
[20] = Aspergillus fumigatus, 231, 24 h
[21] = Aspergillus fumigatus, 231, 48 h
[22] = Lichtheimia corymbifera, 272, 24 h
[23] = Lichtheimia corymbifera, 272, 48 h
[24] = Trichophyton interdigitale, 445, 72 h
[25] = Trichophyton interdigitale, 445, 120 h

SMILES | MIC [1] | MIC [2] | MIC [3] | MIC [4] | MIC [5, 16] | MIC [5, 17] | MIC ([6]; 24 h) | MIC ([6]; 48 h) | MIC ([7]; H6966/08, 24 h) | MIC ([7]; H6966/08, 48 h) | MIC ([8]; SP.J14365/08, 24 h) | MIC ([8]; SP.J14365/08, 48 h) | MIC ([9]; CCM4517, 24 h) | MIC ([9]; CCM4517, 48 h) | MIC ([10]; CCM1961, 72 h) | MIC ([10]; CCM1961, 120 h) | MIC ([11]; ATCC44859, 24 h) | MIC ([11]; ATCC44859, 48 h) | MIC (Candida tropicalis 156; Candida tropicalis, 156, 24 h) | MIC (Candida tropicalis 156; Candida tropicalis, 156, 48 h) | other results
O=C(Nc1cnccn1)c1ccccc1 [Compound 1a] | 100 µg/mL (≈ 502 µM) | > 100 µg/mL | > 100 µg/mL | ≥ 500 µg/mL | > 500 µM | > 500 µM | > 500 µM | > 500 µM | > 500 µM | > 500 µM | > 500 µM | > 500 µM | > 500 µM | > 500 µM | > 500 µM | > 500 µM | 500 µM (≈ 99.6 µg/mL) | > 500 µM | > 500 µM | > 500 µM | M. kans. ATCC 12478 MIC [2, 15]: >100 µg/mL; M. avium ATCC 15769 MIC [3, 15]: >100 µg/mL; MIC (Candida krusei E28; E28, 24 h): > 500 µM; MIC (Candida krusei E28; E28, 48 h): > 500 µM; MIC (Candida glabrata 20/I; 24 h): > 500 µM; MIC (Candida glabrata 20/I; 48 h): > 500 µM; MIC (Trichosporon asahii 1188; [18]): > 500 µM; MIC (Trichosporon asahii 1188; [19]): > 500 µM; MIC [12, 20]: > 500 µM; MIC [12, 21]: > 500 µM; MIC [13, 22]: > 500 µM; MIC [13, 23]: > 500 µM; MIC [14, 24]: > 500 µM; MIC [14, 25]: > 500 µM; melting point: 171.2 to 172 °C
O=C(Nc1cnccn1)c1ccccc1O [Compound 1b] | > 100 µg/mL | > 100 µg/mL | > 100 µg/mL | ≥ 500 µg/mL | > 500 µM | > 500 µM | > 500 µM | > 500 µM | > 500 µM | > 500 µM | > 500 µM | > 500 µM | > 500 µM | > 500 µM | > 500 µM | > 500 µM | > 500 µM | > 500 µM | > 500 µM | > 500 µM | MIC (Candida krusei E28; E28, 24 h): > 500 µM; MIC (Candida krusei E28; E28, 48 h): > 500 µM; MIC (Candida glabrata 20/I; 24 h): > 500 µM; MIC (Candida glabrata 20/I; 48 h): > 500 µM; MIC (Trichosporon asahii 1188; [18]): > 500 µM; MIC (Trichosporon asahii 1188; [19]): > 500 µM; MIC [12, 20]: > 500 µM; MIC [12, 21]: > 500 µM; MIC [13, 22]: > 500 µM; MIC [13, 23]: > 500 µM; MIC [14, 24]: 500 µM (≈ 108 µg/mL); MIC [14, 25]: 500 µM (≈ 108 µg/mL); melting point: 209.9 to 211.5 °C
CC(=O)Oc1cccc(C(=O)Nc2cnccn2)c1 [Compound 1c-Ac] | > 100 µg/mL | > 100 µg/mL | > 100 µg/mL | ≥ 500 µg/mL | > 500 µM | > 500 µM | > 500 µM | > 500 µM | > 500 µM | > 500 µM | > 500 µM | > 500 µM | > 500 µM | > 500 µM | > 500 µM | > 500 µM | > 500 µM | > 500 µM | > 500 µM | > 500 µM | MIC (Candida krusei E28; E28, 24 h): > 500 µM; MIC (Candida krusei E28; E28, 48 h): > 500 µM; MIC (Candida glabrata 20/I; 24 h): > 500 µM; MIC (Candida glabrata 20/I; 48 h): > 500 µM; MIC (Trichosporon asahii 1188; [18]): > 500 µM; MIC (Trichosporon asahii 1188; [19]): > 500 µM; MIC [12, 20]: > 500 µM; MIC [12, 21]: > 500 µM; MIC [13, 22]: > 500 µM; MIC [13, 23]: > 500 µM; MIC [14, 24]: > 500 µM; MIC [14, 25]: > 500 µM; melting point: 168.4 to 169.5 °C
O=C(Nc1cnccn1)c1cccc(O)c1 [Compound 1c] | > 100 µg/mL | > 100 µg/mL | > 100 µg/mL | ≥ 500 µg/mL | > 500 µM | > 500 µM | > 500 µM | > 500 µM | > 500 µM | > 500 µM | > 500 µM | > 500 µM | > 500 µM | > 500 µM | > 500 µM | > 500 µM | > 500 µM | > 500 µM | > 500 µM | > 500 µM | MIC (Candida krusei E28; E28, 24 h): > 500 µM; MIC (Candida krusei E28; E28, 48 h): > 500 µM; MIC (Candida glabrata 20/I; 24 h): > 500 µM; MIC (Candida glabrata 20/I; 48 h): > 500 µM; MIC (Trichosporon asahii 1188; [18]): > 500 µM; MIC (Trichosporon asahii 1188; [19]): > 500 µM; MIC [12, 20]: > 500 µM; MIC [12, 21]: > 500 µM; MIC [13, 22]: > 500 µM; MIC [13, 23]: > 500 µM; MIC [14, 24]: > 500 µM; MIC [14, 25]: > 500 µM; melting point: 192.2 to 193.7 °C
